Results: PubChem BioAssay (NCI)
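Values below derive from 48-hour exposures of cells grown in 96-well plates, with endpoints linearly interpolated between the two concentrations bracketing the appropriate inhibition level. Here, GI50 denotes the concentration required for 50% inhibition of growth. TGI marks complete inhibition of growth.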

Tests used:
Experiment in all cases: NCI-60 cell line screen, 48 h
SK-OV-3 ovarian = test system: SK-OV-3 ovarian
COLO 205 colon = test system: COLO 205 colon
NCI-H23 lung = test system: NCI-H23 lung
HCT-15 colon = test system: HCT-15 colon
MDA-MB-435 = test system: MDA-MB-435
RPMI-8226 leukemia = test system: RPMI-8226 leukemia
RXF 393 renal = test system: RXF 393 renal
TK-10 renal = test system: TK-10 renal
HOP-92 NSCLC = test system: HOP-92 NSCLC
SNB-19 CNS = test system: SNB-19 CNS
M14 melanoma = test system: M14 melanoma
SW-620 colon = test system: SW-620 colon
HS 578T breast = test system: HS 578T breast
U251 CNS = test system: U251 CNS
786-0 renal = test system: 786-0 renal
UACC-62 melanoma = test system: UACC-62 melanoma
DU-145 prostate = test system: DU-145 prostate
SNB-75 CNS = test system: SNB-75 CNS
HL-60(TB) leukemia = test system: HL-60(TB) leukemia
SR leukemia = test system: SR leukemia
NCI/ADR-RES ovarian = test system: NCI/ADR-RES ovarian
SK-MEL-28 melanoma = test system: SK-MEL-28 melanoma
UO-31 renal = test system: UO-31 renal
ACHN renal = test system: ACHN renal
A549 NSCLC = test system: A549 NSCLC
HOP-62 NSCLC = test system: HOP-62 NSCLC
LOX IMVI melanoma = test system: LOX IMVI melanoma
PC-3 prostate = test system: PC-3 prostate
OVCAR-8 ovarian = test system: OVCAR-8 ovarian
T-47D breast = test system: T-47D breast
MOLT-4 leukemia = test system: MOLT-4 leukemia
HCC-2998 colon = test system: HCC-2998 colon
SK-MEL-2 melanoma = test system: SK-MEL-2 melanoma
HCT-116 colon = test system: HCT-116 colon
MDA-MB-231 breast = test system: MDA-MB-231 breast
KM12 colon = test system: KM12 colon
MALME-3M melanoma = test system: MALME-3M melanoma
NCI-H226 lung = test system: NCI-H226 lung
SN12C renal = test system: SN12C renal
SF-268 CNS = test system: SF-268 CNS
OVCAR-4 ovarian = test system: OVCAR-4 ovarian
SK-MEL-5 melanoma = test system: SK-MEL-5 melanoma
SF-539 CNS = test system: SF-539 CNS
NCI-H522 lung = test system: NCI-H522 lung
A498 renal = test system: A498 renal
CAKI-1 renal = test system: CAKI-1 renal
EKVX NSCLC = test system: EKVX NSCLC
K-562 leukemia = test system: K-562 leukemia
UACC-257 melanoma = test system: UACC-257 melanoma
IGROV1 ovarian = test system: IGROV1 ovarian
MCF7 breast = test system: MCF7 breast
NCI-H460 lung = test system: NCI-H460 lung
OVCAR-5 ovarian = test system: OVCAR-5 ovarian
HT29 colon = test system: HT29 colon
OVCAR-3 ovarian = test system: OVCAR-3 ovarian
CCRF-CEM leukemia = test system: CCRF-CEM leukemia

**Q.** Which GI50 (SK-OV-3 ovarian) does the source give for `O=S(=O)(NC1=NCCN1C(=S)SN1CCn2c1nsc2=S)c1ccc(OC(F)(F)F)cc1` here?
**A.** 19.5 µM

**Q.** What about the TGI (SK-OV-3 ovarian) of the same compound?
**A.** 34.6 µM

**Q.** What about the GI50 (COLO 205 colon) of the same compound?
**A.** 10.7 µM

**Q.** What about the TGI (COLO 205 colon) of the same compound?
**A.** 28.2 µM

**Q.** And the GI50 (NCI-H23 lung)?
**A.** 12.7 µM

**Q.** And the TGI (NCI-H23 lung)?
**A.** 39 µM

**Q.** What about the GI50 (HCT-15 colon) of the same compound?
**A.** 8.64 µM

**Q.** And the TGI (HCT-15 colon)?
**A.** 26.2 µM

**Q.** What about the GI50 (MDA-MB-435) of the same compound?
**A.** 4.47 µM

**Q.** What about the TGI (MDA-MB-435) of the same compound?
**A.** 24.5 µM

**Q.** And the GI50 (RPMI-8226 leukemia)?
**A.** 6.1 µM

**Q.** What about the TGI (RPMI-8226 leukemia) of the same compound?
**A.** > 100 µM

**Q.** And the GI50 (RXF 393 renal)?
**A.** 2.77 µM

**Q.** And the TGI (RXF 393 renal)?
**A.** 8.1 µM

**Q.** And the GI50 (TK-10 renal)?
**A.** 11.3 µM

**Q.** And the TGI (TK-10 renal)?
**A.** 24.6 µM

**Q.** And the GI50 (HOP-92 NSCLC)?
**A.** 25.1 µM

**Q.** And the TGI (HOP-92 NSCLC)?
**A.** 44.1 µM

**Q.** And the GI50 (SNB-19 CNS)?
**A.** 16.8 µM

**Q.** And the TGI (SNB-19 CNS)?
**A.** 32.1 µM

**Q.** What about the GI50 (M14 melanoma) of the same compound?
**A.** 25.9 µM

**Q.** And the TGI (M14 melanoma)?
**A.** > 100 µM

**Q.** What about the GI50 (SW-620 colon) of the same compound?
**A.** 9.62 µM

**Q.** What about the TGI (SW-620 colon) of the same compound?
**A.** 24.3 µM

**Q.** What about the GI50 (HS 578T breast) of the same compound?
**A.** 4.83 µM

**Q.** And the TGI (HS 578T breast)?
**A.** 33.1 µM

**Q.** What about the GI50 (U251 CNS) of the same compound?
**A.** 14.4 µM

**Q.** And the TGI (U251 CNS)?
**A.** 29.4 µM

**Q.** And the GI50 (786-0 renal)?
**A.** 8.53 µM

**Q.** What about the TGI (786-0 renal) of the same compound?
**A.** 21.6 µM

**Q.** What about the GI50 (UACC-62 melanoma) of the same compound?
**A.** 11.6 µM

**Q.** And the TGI (UACC-62 melanoma)?
**A.** 24.4 µM

**Q.** What about the GI50 (DU-145 prostate) of the same compound?
**A.** 2.69 µM

**Q.** What about the TGI (DU-145 prostate) of the same compound?
**A.** 12.1 µM

**Q.** And the GI50 (SNB-75 CNS)?
**A.** 14.7 µM

**Q.** And the TGI (SNB-75 CNS)?
**A.** 34.4 µM

**Q.** What about the GI50 (HL-60(TB) leukemia) of the same compound?
**A.** 2.88 µM

**Q.** What about the TGI (HL-60(TB) leukemia) of the same compound?
**A.** 7.35 µM

**Q.** And the GI50 (SR leukemia)?
**A.** 1.74 µM

**Q.** What about the TGI (SR leukemia) of the same compound?
**A.** 5.76 µM

**Q.** What about the GI50 (NCI/ADR-RES ovarian) of the same compound?
**A.** 20.5 µM

**Q.** And the TGI (NCI/ADR-RES ovarian)?
**A.** > 100 µM

**Q.** What about the GI50 (SK-MEL-28 melanoma) of the same compound?
**A.** 22.7 µM

**Q.** And the TGI (SK-MEL-28 melanoma)?
**A.** 64 µM

**Q.** And the GI50 (UO-31 renal)?
**A.** 20.5 µM

**Q.** What about the TGI (UO-31 renal) of the same compound?
**A.** 41.5 µM

**Q.** And the GI50 (ACHN renal)?
**A.** 10.1 µM

**Q.** What about the TGI (ACHN renal) of the same compound?
**A.** 23 µM

**Q.** And the GI50 (A549 NSCLC)?
**A.** 21.1 µM

**Q.** And the TGI (A549 NSCLC)?
**A.** 54.3 µM

**Q.** What about the GI50 (HOP-62 NSCLC) of the same compound?
**A.** 16.3 µM

**Q.** What about the TGI (HOP-62 NSCLC) of the same compound?
**A.** 33 µM

**Q.** And the GI50 (LOX IMVI melanoma)?
**A.** 8.6 µM

**Q.** What about the TGI (LOX IMVI melanoma) of the same compound?
**A.** 22.9 µM

**Q.** What about the GI50 (PC-3 prostate) of the same compound?
**A.** 13.1 µM

**Q.** And the TGI (PC-3 prostate)?
**A.** 37.2 µM

**Q.** What about the GI50 (OVCAR-8 ovarian) of the same compound?
**A.** 16.3 µM

**Q.** And the TGI (OVCAR-8 ovarian)?
**A.** 39.3 µM

**Q.** What about the GI50 (T-47D breast) of the same compound?
**A.** 13.9 µM

**Q.** And the TGI (T-47D breast)?
**A.** 44.4 µM

**Q.** And the GI50 (MOLT-4 leukemia)?
**A.** 2.04 µM

**Q.** What about the TGI (MOLT-4 leukemia) of the same compound?
**A.** 7.39 µM

**Q.** And the GI50 (HCC-2998 colon)?
**A.** 12.7 µM

**Q.** And the TGI (HCC-2998 colon)?
**A.** 26.1 µM

**Q.** What about the GI50 (SK-MEL-2 melanoma) of the same compound?
**A.** 6.58 µM

**Q.** What about the TGI (SK-MEL-2 melanoma) of the same compound?
**A.** 21 µM

**Q.** And the GI50 (HCT-116 colon)?
**A.** 6.15 µM

**Q.** And the TGI (HCT-116 colon)?
**A.** 22.3 µM

**Q.** And the GI50 (MDA-MB-231 breast)?
**A.** 15.1 µM

**Q.** What about the TGI (MDA-MB-231 breast) of the same compound?
**A.** 36.1 µM

**Q.** What about the GI50 (KM12 colon) of the same compound?
**A.** 8.11 µM

**Q.** What about the TGI (KM12 colon) of the same compound?
**A.** 22.8 µM

**Q.** And the GI50 (MALME-3M melanoma)?
**A.** 5.25 µM

**Q.** And the TGI (MALME-3M melanoma)?
**A.** 32.7 µM

**Q.** And the GI50 (NCI-H226 lung)?
**A.** 18 µM

**Q.** What about the TGI (NCI-H226 lung) of the same compound?
**A.** 38.7 µM

**Q.** What about the GI50 (SN12C renal) of the same compound?
**A.** 14.5 µM

**Q.** What about the TGI (SN12C renal) of the same compound?
**A.** 30.3 µM

**Q.** What about the GI50 (SF-268 CNS) of the same compound?
**A.** 11 µM

**Q.** And the TGI (SF-268 CNS)?
**A.** 98.1 µM

**Q.** And the GI50 (OVCAR-4 ovarian)?
**A.** 14.6 µM

**Q.** And the TGI (OVCAR-4 ovarian)?
**A.** 31.6 µM

**Q.** What about the GI50 (SK-MEL-5 melanoma) of the same compound?
**A.** 8.49 µM

**Q.** And the TGI (SK-MEL-5 melanoma)?
**A.** 21.8 µM

**Q.** And the GI50 (SF-539 CNS)?
**A.** 1.31 µM

**Q.** What about the TGI (SF-539 CNS) of the same compound?
**A.** 12.1 µM

**Q.** What about the GI50 (NCI-H522 lung) of the same compound?
**A.** 2.92 µM

**Q.** What about the TGI (NCI-H522 lung) of the same compound?
**A.** 9.8 µM

**Q.** What about the GI50 (A498 renal) of the same compound?
**A.** 15.9 µM

**Q.** What about the TGI (A498 renal) of the same compound?
**A.** 29.7 µM

**Q.** What about the GI50 (CAKI-1 renal) of the same compound?
**A.** 17.5 µM

**Q.** What about the TGI (CAKI-1 renal) of the same compound?
**A.** 74.5 µM

**Q.** And the GI50 (EKVX NSCLC)?
**A.** 5.11 µM

**Q.** And the TGI (EKVX NSCLC)?
**A.** 19.6 µM

**Q.** And the GI50 (K-562 leukemia)?
**A.** 4.02 µM

**Q.** And the TGI (K-562 leukemia)?
**A.** 19.8 µM

**Q.** What about the GI50 (UACC-257 melanoma) of the same compound?
**A.** 15.5 µM

**Q.** And the TGI (UACC-257 melanoma)?
**A.** 30 µM

**Q.** And the GI50 (IGROV1 ovarian)?
**A.** 11.4 µM

**Q.** What about the TGI (IGROV1 ovarian) of the same compound?
**A.** 29.1 µM

**Q.** And the GI50 (MCF7 breast)?
**A.** 4.52 µM

**Q.** And the TGI (MCF7 breast)?
**A.** 25.2 µM

**Q.** And the GI50 (NCI-H460 lung)?
**A.** 13.1 µM

**Q.** What about the TGI (NCI-H460 lung) of the same compound?
**A.** 48.5 µM

**Q.** What about the GI50 (OVCAR-5 ovarian) of the same compound?
**A.** 21.8 µM

**Q.** And the TGI (OVCAR-5 ovarian)?
**A.** 36.7 µM

**Q.** And the GI50 (HT29 colon)?
**A.** 11.4 µM

**Q.** What about the TGI (HT29 colon) of the same compound?
**A.** > 100 µM

**Q.** What about the GI50 (OVCAR-3 ovarian) of the same compound?
**A.** 7.63 µM

**Q.** What about the TGI (OVCAR-3 ovarian) of the same compound?
**A.** 22.9 µM

**Q.** And the GI50 (CCRF-CEM leukemia)?
**A.** 4.01 µM

**Q.** And the TGI (CCRF-CEM leukemia)?
**A.** > 100 µM
